The source of these data is patent US20200369674A1, “ANTI-PAIN COMPOUND AND PREPARATION METHOD THEREOF” (LUNAN PHARMACEUTICAL GROUP CORPORATION, priority 2017, published 2020).

The structures appear in SMILES notation.

Experiment [1] has as its system ICR mice. Briefly: Carrageenan-induced paw swelling in mice. In kind it is in vivo. The following applies: 1 mg/kg i.g.; for 0.5 h inhibition rate (%) / 0.5 h swelling degree (μL): 0.5 h after carrageenan injection; for 0.5 h swelling degree (μL) / 1 h swelling degree (μL) / 2 h swelling degree (μL): mean±SD; for 1 h inhibition rate (%) / 1 h swelling degree (μL): 1 h after carrageenan injection; for 2 h inhibition rate (%) / 2 h swelling degree (μL): 2 h after carrageenan injection. As to the method:
ICR mice, body weight 18 g-22 g, half of them being male and the other half being female, provided by the Department of Laboratory Animals, Peking University. The animals were raised in a standard environment: temperature 23±1° C., relative humidity 55±5%, light-dark cycle 12 h/12 h, and fed with standard pellet feed.
The mouse was fixed in a special holder, and both hind feet were exposed. Before the test, a line was drawn at 0.5 cm below the ankle joint of mouse with a marker, and used as a mark for measuring plantar volume. 30 minutes before administration the volume of right hind foot was measured as basic threshold. The mice were randomly divided into 5 groups, 8 mice per group, half of them being male and the other half being female. Vehicle control group (double-distilled water, i.g.), dexamethasone control group (0.5 mg/kg, i.g.), compound DXL-A-22 group (1 mg/kg, i.g.), and DXL-A-24 group (1 mg/kg, i.g.) were set. All drugs were dissolved in double-distilled water before administration, and were administered at 0.1 mL/10 g. Immediately after intragastric administration, 20 μL of 5% carrageenan saline solution was injected subcutaneously in the right hind foot of the mice, and the plantar volumes were measured at time points of 0.5 h, 1 h and 2 h after injection. The difference between the plantar volume of right foot after injection of carrageenan and the plantar volume of right foot before injection was used as swelling degree index (i.e., swelling degree). The swelling degree was calculated according to formula (3). The intensity of anti-inflammatory effect was expressed as inhibition rate (%), and the inhibition rate (%) was calculated according to formula (4).
Swelling degree=plantar volume of right foot after injection−plantar volume of right foot before injection (3)
Inflammation inhibition rate (%)=(plantar swelling degree in vehicle control group−plantar swelling degree in drug administration group)/plantar swelling degree in vehicle control group×100% (4)
(In general: The carrageenan paw model is a standard test of acute inflammation.)

Experiment [2] concerns CCI rats. The experiment in a line: Mechanical stimulation paw withdrawal threshold (MWT) in CCI rats. The following applies: for inhibition rate (absolute %): PTE % vs vehicle; for MWT: mean±SEM; for inhibition rate (relative %): relative to sham minus vehicle. It counts as in vivo, SD rats. As to the method: (§1) SD rats, body weight 180 g-220 g, half of them being male and the other half being female, provided by the Department of Laboratory Animals, Peking University. The rats were raised in a standard environment with temperature of 22±0.5° C. and relative humidity of 55±5%, 12 h/12 h light-dark cycle, and fed with standard feed.
(§2) Rat was anesthetized with pentobarbital sodium (60 mg/kg, i.p.), the right hind limb was surgically shaved, fixed in the prone position, a longitudinal incision was made along the middle of the right hind limb of the rat, the muscle was bluntly separated, the sciatic nerve was exposed, and the sciatic nerve bifurcate proximal end was loosely ligated with 4-0 silk suture for 4 times, with an interval of about 1 mm each time, in which the degree of tightness was suitable when it was observed that the right hind leg was slightly shaken. After ligation, the muscle and skin were sutured in sequence. For the sham-operated group, the sciatic nerve was only exposed, but not ligated. The success of modeling was determined by observing whether the hind limb of the rat's operation side was closed, slightly valgus and often vacated, and by measuring the mechanical stimulation paw withdrawal threshold and the thermal stimulation paw withdrawal latency of the rat.
(§3) Before surgery, the mechanical stimulation paw withdrawal thresholds and the thermal stimulation paw withdrawal latencies in the rats were determined, and the rats were grouped as: sham operation group (sham), vehicle group (double-distilled water, i.g.), DXL-A-22 group (2 mg/kg, i.g.), DXL-A-24 group (1 mg/kg, i.g.), and Gabapentin group (100 mg/kg, i.g.). All compounds and drugs were dissolved in double-distilled water, and given by intragastric administration at 1 mL/100 g. From the first day after surgery, the administration was carried out every day, and the mechanical stimulation paw withdrawal threshold and the thermal stimulation paw withdrawal latency were measured 2 hours after administration.
The mechanical stimulation paw withdrawal threshold (MWT) of rats was detected by von Frey electronic pain tester. The measurement was carried out on the days 5, 7 and 14 after operation. The rats were placed in a transparent plexiglass box (whose bottom was a wire mesh with a gap of 1 mm^2) to adapt to the environment for 30 min. After the rats had no exploration action, the von Frey electronic pain tester was used to stimulate the middle position of paw at the operation side of the rat, and the maximum force caused by rat paw withdrawal response (i.e., MWT) was recorded. The inhibition rate of the compound was calculated according to the following formula:
Absolute increase rate (i.e., PTE %): PTE %=(MWT of test group−MWT of vehicle group)/MWT of vehicle group×100 (1)
Relative increase rate: Inhibition rate %=(MWT of test group−MWT of vehicle group)/(MWT of Sham operation group−MWT of vehicle group)×100 (2)

Experiment [3] relates to ICR mice. The experiment in a line: Acetic acid writhing test. Conditions: 1 mg/kg intragastric, 0.6% acetic acid ip two hours after administration. Also noted: key to Inhibition rate (%): Symbol “—” indicates that the data obtained at this dose was not significantly different from the vehicle control group. It counts as in vivo. As to the method: ICR mice, 18-22 g, half of them being male and the other half being female, provided by the Department of Laboratory Animals, Peking University (License No.: SCXK (Beijing) 2016-0010).
ICR mice, half of them being male and the other half being female, were randomly grouped, 8 mice per group. Vehicle control group (double-distilled water), ibuprofen control group, and groups for samples to be tested (the compounds and doses thereof were shown in Table 2) were set. All drugs were dissolved in double-distilled water before administration, and given by intragastric administration at predetermined doses. Two hours after the administration, the mice were intraperitoneally injected with 0.6% acetic acid solution (10 ml/kg, ip), and the number of times the mice writhed (abdomen depressed, buttock raised, body elongated) was recorded within 5-20 minutes. The inhibition rate % of compound on writhing pain in mice was calculated according to the following formula.
Inhibition rate %=(number of writhing times in vehicle control group−number of writhing times in test group)/number of writhing times in vehicle control group×100
Background: Writhing tests count abdominal constrictions after an irritant is injected.

Experiment [4] has as its system CCI rats. Briefly: Thermal stimulation paw withdrawal latency (PWL) in CCI rats. It counts as in vivo, SD rats. The following applies: for PWL: hot plate 50.5° C., cut-off 14s, mean±SEM. As to the method: as §1, §2, §3
The thermal stimulation paw withdrawal latency (PWL) was measured by a hot plate method. The measurement was carried out on the days 5, 7 and 14 after operation. The temperature of the hot plate was 50.5° C. Timing started when the rat was placed on the hot plate, and stopped when the shaking and foot licking responses of the rat appeared, and this time was the PWL of the rat. The hot plate cut-off time was 14s, and the percentage of analgesia (i.e., MPE %) was calculated according to formula (3):
MPE %=(PWL of test group−PWL of vehicle group)/(cut-off time−PWL of vehicle group)×100 (3)

The mark [5] stands for this setting: 2 mg/kg i.g. daily, Day 5 after operation, section 3.1.
Where [6] appears, read: 2 mg/kg i.g. daily, Day 7 after operation, section 3.1.
The mark [7] stands for this setting: 2 mg/kg i.g. daily, Day 14 after operation, section 3.1.
Where [8] appears, read: 2 mg/kg i.g. daily, Day 5 after operation, section 3.2.
[9] abbreviates: 2 mg/kg i.g. daily, Day 7 after operation, section 3.2.
Where [10] appears, read: 2 mg/kg i.g. daily, Day 14 after operation, section 3.2.
The mark [11] stands for this setting: 1 mg/kg i.g. daily, Day 5 after operation, section 3.3.
Setting [12] is: 1 mg/kg i.g. daily, Day 7 after operation, section 3.3.
Where [13] appears, read: 1 mg/kg i.g. daily, Day 14 after operation, section 3.3.
[14] abbreviates: 1 mg/kg i.g. daily, Day 5 after operation, section 3.4.
Where [15] appears, read: 1 mg/kg i.g. daily, Day 7 after operation, section 3.4.
The mark [16] stands for this setting: 1 mg/kg i.g. daily, Day 14 after operation, section 3.4.

`Br.Brc1ccc(N2CC[N+]3(CCCC3)CC2)cc1` [DXL-A-22, 8-(4-bromophenyl)-5,8-diazaspiro[4.5]decan-5-ium bromide]: in the experiment with ICR mice [1], the “0.5 h inhibition rate (%)” value came out at 50.07%, the “0.5 h swelling degree (μL)” value is on record as 42.63 ± 16.98**/ μL, the “1 h inhibition rate (%)” value worked out at 55.56% and the “1 h swelling degree (μL)” value is reported as 38.50 ± 11.40**/ μL. In the experiment on ICR mice [1], the “2 h inhibition rate (%)” value is listed as 65.36% and the “2 h swelling degree (μL)” value is on record as 38.63 ± 11.67**/ μL. Moreover, in the experiment on CCI rats [2] (setting [5]), the “inhibition rate (absolute %)” value worked out at 76.88%, the MWT is listed as 19.28 ± 1.44**/ and the “inhibition rate (relative %)” value came to 31.01%. Besides, in the experiment with CCI rats [2] (setting [6]), the “inhibition rate (absolute %)” value worked out at 116.83%, the MWT is given as 22.16 ± 0.79**/ and the “inhibition rate (relative %)” value came out at 43.18%. For the same compound, in the experiment with CCI rats [2] (setting [7]), the “inhibition rate (absolute %)” value is 108.81%, the MWT is 22.05 ± 0.74**/ and the “inhibition rate (relative %)” value came to 41.26%. Besides, the “Inhibition rate (%)” value in the experiment with ICR mice [3] was “—”. Moreover, in the experiment with CCI rats [4] (setting [8]), the PWL is given as 10.84 ± 0.32**/ and the “MPE(%)” value came out at 51.61%. Moreover, in the experiment with CCI rats [4] (setting [9]), the PWL was 11.28 ± 0.64**/ and the “MPE(%)” value is given as 58.91%. In the experiment with CCI rats [4] (setting [10]), the PWL was 11.19 ± 0.52**/ and the “MPE(%)” value worked out at 55.61%.

For `FC(F)(F)c1ccc(N2CC[N+]3(CCCC3)CC2)cc1.[Br-]` [DXL-A-24, 8-(4-(trifluoromethyl)phenyl)-5,8-diazaspiro[4.5]decan-5-ium bromide], in the experiment with ICR mice [1], the “0.5 h inhibition rate (%)” value turned out to be 52.27%, the “0.5 h swelling degree (μL)” value was 40.75 ± 13.34**/ μL, the “1 h inhibition rate (%)” value was 57.72% and the “1 h swelling degree (μL)” value is 36.63 ± 16.12**/ μL. In the experiment on ICR mice [1], the “2 h inhibition rate (%)” value was determined as 67.49% and the “2 h swelling degree (μL)” value is given as 36.25 ± 9.60**/ μL. In the experiment on CCI rats [2] (setting [11]), the “inhibition rate (absolute %)” value was 75.78%, the MWT was 20.32 ± 1.09**/ and the “inhibition rate (relative %)” value turned out to be 35.35%. Also, in the experiment with CCI rats [2] (setting [12]), the “inhibition rate (absolute %)” value is given as 117.94%, the MWT was 22.84 ± 1.64**/ and the “inhibition rate (relative %)” value worked out at 47.89%. Also, in the experiment on CCI rats [2] (setting [13]), the “inhibition rate (absolute %)” value came to 75.09%, the MWT is given as 20.31 ± 1.57**/ and the “inhibition rate (relative %)” value came out at 33.24%. In addition, the “Inhibition rate (%)” value in the experiment with ICR mice [3] was “—”. In the experiment with CCI rats [4] (setting [14]), the PWL is reported as 11.29 ± 0.57**/ and the “MPE(%)” value is on record as 52.62%. Moreover, in the experiment on CCI rats [4] (setting [15]), the PWL is on record as 12.35 ± 0.55**/ and the “MPE(%)” value amounted to 72.36%. Also, in the experiment with CCI rats [4] (setting [16]), the PWL was 13.26 ± 0.43**/ and the “MPE(%)” value was 88.79%.
